10 compounds from ChEMBL document CHEMBL1201862, “PubChem BioAssay data set” (2004) can be followed below.

Each structure is given as a SMILES string.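 In this assay, cells in 96-well plates receive the compound at five concentrations for 48 hours. Endpoints are linearly interpolated between the surrounding concentrations. Here, GI50 denotes the concentration required for 50% inhibition of growth.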 The source made the active and inactive calls. No stated cut-off is given here; in the data, active = GI50 up to about 1.1 µM and inactive = higher.

Common to all, as to test: NCI anticancer screen, dose series, 48 h
Experiment [1] concerns M14.
Experiment [2] concerns KM12.
For experiment [3], the system named is MCF7.
Experiment [4] relates to U-251.
Experiment [5] relates to COLO 205.
The test system of experiment [6] is HOP-92.
Experiment [7] relates to A549.
For experiment [8], the system named is OVCAR-5.
The subject of experiment [9] is NCI/ADR-RES.
For experiment [10], the system named is K562.
For experiment [11], the system named is BT-549.
Experiment [12] has as its system T47D.
Experiment [13] relates to OVCAR-8.
Experiment [14] relates to HCT-15.
In experiment [15] the test system is Malme-3M.
The subject of experiment [16] is SK-MEL-5.
Experiment [17] concerns NCI-H226.
Experiment [18] concerns MDA-MB-435.
The test system of experiment [19] is SN12C.
The test system of experiment [20] is TK-10.

For the compound `Cc1cc2c(cc1-c1cc3c(cc1C)C(C(C)C)=C(O)C(=O)/C3=C\Nc1c(C)n(C)n(-c3ccccc3)c1=O)/C(=C/Nc1c(C)n(C)n(-c3ccccc3)c1=O)C(=O)C(O)=C2C(C)C`, the GI50 is 50.1 µM (inactive) in experiment [1]; 71.6 µM (inactive) in experiment [2]; 38.8 µM (inactive) in experiment [3]; 28.2 µM (inactive) in experiment [4]; 82.6 µM (inactive) in experiment [5]; 78.2 µM (inactive) in [6]. The GI50 is 40.1 µM (inactive) in experiment [7]; > 100 µM (inactive) in experiment [8]; > 100 µM (inactive) in [9]; > 100 µM (inactive) in [10]; > 100 µM (inactive) in experiment [11]; > 100 µM (inactive) in experiment [12]. The GI50 is 82 µM (inactive) in experiment [13]; > 100 µM in experiment [14]; > 100 µM (inactive) in [15]; 49.9 µM (inactive) in experiment [16]; 98.2 µM (inactive) in [17]; 79.3 µM (inactive) in [18]. In experiment [19], the GI50 is > 100 µM (inactive).
On to `O=C1C=CC(=O)c2c1ccc1c3ccccc3n(CCCCCCCCCCCCn3c4ccccc4c4ccc5c(c43)C(=O)C=CC5=O)c21`, for which the GI50 in [1] was > 100 µM (inactive); in experiment [2], > 100 µM (inactive); in [20] it was > 100 µM (inactive); in experiment [3], > 100 µM (inactive); in experiment [4], > 88.7 µM (inactive); in experiment [5] it was > 100 µM (inactive). For the same compound, the GI50 in experiment [6] is > 100 µM (inactive); in experiment [7], > 100 µM (inactive); in experiment [8] it was > 100 µM (inactive); in [9], > 100 µM (inactive); in experiment [10] it was > 72.4 µM (inactive); in [11], > 100 µM (inactive). In addition, the GI50 in experiment [12] was > 100 µM (inactive); in [13], > 100 µM (inactive); in [14], > 100 µM; in experiment [15], > 100 µM (inactive); in experiment [16], > 100 µM (inactive); in [17], > 100 µM (inactive). Further, the GI50 in experiment [18] and in [19] was > 100 µM (inactive) in each case.
Regarding `C#CCn1c(=O)ccn(/C(=C\C(=O)OCC)C(=O)OCC)c1=O`, the GI50 was 4.32 µM (inactive) in experiment [1]; 22.8 µM (inactive) in [2]; 1.81 µM (inactive) in experiment [20]; 2.87 µM (inactive) in experiment [3]; 14.3 µM (inactive) in [4]; 1.11 µM (active) in experiment [5]. In addition, the GI50 was 2.16 µM (inactive) in experiment [6]; 22.8 µM (inactive) in experiment [7]; 13.5 µM (inactive) in experiment [8]; 7.64 µM (inactive) in experiment [9]; 3.54 µM (inactive) in experiment [10]; 12.4 µM (inactive) in experiment [11]. Moreover, the GI50 in experiment [12] was 3.52 µM (inactive); in [13], 2.31 µM (inactive); in experiment [14], 1.51 µM; in [15] it was 1.89 µM (inactive); in experiment [16] it was 20.5 µM (inactive); in experiment [17], 19.9 µM (inactive). The GI50 was 7.33 µM (inactive) in [18] and 8.89 µM (inactive) in experiment [19].
As for `CC(=O)OCC1OC(n2c(-c3cccs3)c3c(c(C#N)c2=S)-c2ccccc2CC3)C(OC(C)=O)C(OC(C)=O)C1OC(C)=O` (stereo not drawn), the GI50 in [1] was 7.67 µM (inactive); in [2], 9.14 µM (inactive); in experiment [20], 6.19 µM (inactive); in experiment [3] it was 6.01 µM (inactive); in experiment [4], 10.1 µM (inactive); in [5], 9.35 µM (inactive). The GI50 was 2.51 µM (inactive) in experiment [6]; 13.2 µM (inactive) in experiment [7]; 26.5 µM (inactive) in experiment [8]; 17.7 µM (inactive) in experiment [9]; 4.37 µM (inactive) in experiment [10]; 11.7 µM (inactive) in experiment [11]. Further, the GI50 is 5.07 µM (inactive) in experiment [12]; 5.38 µM (inactive) in [13]; 8.26 µM in experiment [14]; 7.36 µM (inactive) in [15]; 6.18 µM (inactive) in experiment [16]; 28.4 µM (inactive) in [17]. Further, the GI50 in experiment [18] is 2.77 µM (inactive); in experiment [19], 20.2 µM (inactive).
With `O=C(N/N=C/c1ccccc1O)c1ccccc1Nc1ccccc1C(=O)N/N=C/c1ccccc1O`, the GI50 was 0.953 µM (active) in experiment [1]; 1.38 µM (inactive) in [2]; 5.87 µM (inactive) in experiment [20]; 0.583 µM (active) in [3]; 3.48 µM (inactive) in [4]; 0.303 µM (active) in experiment [5]. Besides, the GI50 was 2.26 µM (inactive) in experiment [6]; 1.62 µM (inactive) in experiment [7]; > 100 µM (inactive) in experiment [8]; 1 µM (active) in experiment [9]; 1 µM (active) in experiment [10]; 7.03 µM (inactive) in [11]. Besides, the GI50 in experiment [12] was 0.859 µM (active); in experiment [13], 0.647 µM (active); in [14], 0.329 µM; in experiment [15], 0.29 µM (active); in [16], 0.541 µM (active); in [17] it was 0.403 µM (active). In experiment [18], the GI50 was 2.41 µM (inactive).
`CC(=O)OCC1OC(Nn2c(=O)[nH]c3ccccc3c2=O)C(OC(C)=O)C(OC(C)=O)C1OC(C)=O` (stereo not drawn): the GI50 was > 100 µM (inactive) in experiment [1]; > 100 µM (inactive) in experiment [2]; > 100 µM (inactive) in experiment [3]; > 100 µM (inactive) in [4]; > 100 µM (inactive) in experiment [5]; 89.1 µM (inactive) in experiment [6]. The GI50 was > 100 µM (inactive) in experiment [7]; > 100 µM (inactive) in [8]; > 100 µM (inactive) in [9]; > 100 µM (inactive) in experiment [10]; > 100 µM (inactive) in experiment [11]; 35.5 µM (inactive) in [12]. The GI50 in experiment [13] is > 100 µM (inactive); in [14], > 100 µM; in [15], > 100 µM (inactive); in [16], > 100 µM (inactive); in experiment [17] it was > 100 µM (inactive); in experiment [18], > 100 µM (inactive). Further, the GI50 in [19] was > 100 µM (inactive).
Consider `CN(O)C(=O)Cc1ccc(OCc2cccc(Cl)c2)cc1`, for which the GI50 in experiment [1], in experiment [2], in experiment [20], in experiment [3], in [4] and in experiment [5] was > 100 µM (inactive) throughout. For the same compound, the GI50 in experiment [6], in experiment [7], in experiment [8], in experiment [9], in experiment [10] and in experiment [11] was > 100 µM (inactive) throughout. Also, the GI50 in experiment [12] was 40.4 µM (inactive); in experiment [13], > 100 µM (inactive); in [14] it was > 100 µM; in experiment [16] it was > 100 µM (inactive); in [17], > 100 µM (inactive); in experiment [18], > 100 µM (inactive). Also, the GI50 in experiment [19] is > 100 µM (inactive).
Consider `CCOP(=O)(OCC)C(C(=O)OC)C(=O)C(=O)Nc1cccc(O)c1` (stereo not drawn), for which the GI50 in [1], in experiment [2], in experiment [20], in experiment [3], in [4] and in experiment [5] was > 100 µM (inactive) throughout. For the same compound, the GI50 in experiment [6], in experiment [7], in [8], in experiment [9], in [11] and in [12] was > 100 µM (inactive) throughout. For the same compound, the GI50 was > 100 µM (inactive) in experiment [13]; > 100 µM in [14]; > 100 µM (inactive) in experiment [15]; > 100 µM (inactive) in experiment [16]; > 100 µM (inactive) in experiment [17]; > 100 µM (inactive) in [18]. The GI50 in experiment [19] was > 100 µM (inactive).
For the compound `CC(=O)OCCc1cc2ccccc2oc1=O`, the GI50 in experiment [1], in experiment [2], in experiment [3], in [4], in experiment [5] and in [6] was > 100 µM (inactive) throughout. The GI50 in experiment [7], in experiment [8], in experiment [9], in experiment [10], in experiment [11] and in experiment [12] was > 100 µM (inactive) in each case. Moreover, the GI50 in experiment [13] was > 100 µM (inactive); in experiment [14] it was > 100 µM; in experiment [15] it was > 100 µM (inactive); in experiment [16], > 100 µM (inactive); in [17] it was > 100 µM (inactive); in experiment [18], > 100 µM (inactive). Further, the GI50 in experiment [19] is > 100 µM (inactive).
`COc1cc2ccc1OCc1cccc(n1)COc1ccc(cc1OC)/C=N\CCNCC/N=C\2`: the GI50 in experiment [1] was > 100 µM (inactive); in experiment [20], > 100 µM (inactive); in experiment [3] it was > 100 µM (inactive); in experiment [4], 33.2 µM (inactive); in [5], > 100 µM (inactive); in [6] it was 48.4 µM (inactive). The GI50 was > 100 µM (inactive) in [7]; > 100 µM (inactive) in experiment [8]; > 100 µM (inactive) in experiment [9]; > 100 µM (inactive) in [10]; 42.5 µM (inactive) in experiment [11]; 65.8 µM (inactive) in [12]. The GI50 in [13] is > 100 µM (inactive); in experiment [14], > 100 µM; in experiment [15], > 100 µM (inactive); in [16], > 100 µM (inactive); in [17] it was > 100 µM (inactive); in [18] it was > 100 µM (inactive). For the same compound, in experiment [19], the GI50 was > 100 µM (inactive).
